Measurements: patent US8088753B2, “Heparin conjugates and methods” (Mediplex Corporation, Korea, priority 2007, dated 2012)

Test system: SCC cells
Type: in vivo, C3H/HeN mice
Settings: 5 mg/kg intraperitoneal twice weekly; Example 7, FIG. 8

## bevacizumab: FDA-approved anti-angiogenic monoclonal antibody that binds the receptor binding domain of VEGF
  tumor growth inhibition compared with the control: about 74%
